The values below come from US20240156800A1, “EP300 DEGRADER AND USES THEREOF IN NEUROBLASTOMA” (DANA-FARBER CANCER INSTITUTE, INC., priority 2021, published 2024).

“Also recorded” adds a separate entry of the source.

In series [1] the test system is H3K27ac. The experiment in a line: H3K27ac ChIP-seq with Drosophila spike-in (ChIP-RX) in Kelly cells. It counts as cell-based, human. As to conditions: 500 nM. On the procedure: ChIP-seq was performed as previously described for cell lines (Durbin et al. Nat. Genet. 50:1240-6 (2018)). The following antibodies were used for ChIP: EP300 (Abcam, ab10485), CBP (#7389, Cell Signaling Technology®), TFAP2β (#2509, Cell Signaling Technology®), ASCL1 (sc-374104, Santa Cruz Biotechnology) and H3K27ac (Abcam ab4729). For each ChIP, 10 μg of antibody was added to 3 ml of sonicated nuclear extract. Illumina® sequencing, library construction, and ChIP-seq analysis methods were performed as described in Mansour et al. Science 346, 1373-7 (2014) and Sanda et al. Cancer Cell 22:209-21 (2012). Remaining ChIP-seq and assay for transposase-accessible chromatin (ATAC)-sequencing data were extracted from previously published datasets (GSE120074, GSE94822, GSE65664) available through the GEO portal. For experiments involving analysis of quantitative changes in H3K27ac, pellets of neuroblastoma cells were externally spiked in with similarly fixed and processed S2 cells at 1:10 ratio, prior to sonication.
ChIP-RX reads from Kelly cells treated with 500 nM JQAD1 were aligned in multiple steps. Reads were aligned to the dm6 revision of the D. melanogaster reference genome with -k 1 —chunkmbs 256—best to identify spiked-in DNA. Counts of fly reads were determined by counting unique read names in the aligned read file. Remaining non-fly reads were aligned to the hg19 revision of the human reference genome with parameters -k 2 -m 2 -chunkmbs 256 -best -175. Visualization files were constructed using macs 1.4 with parameters -w -S -space=50 -nomodel -shiftsize=200 to generate wiggle files, which were subsequently normalized by the millions of fly-mapped reads in the corresponding sample.
H3K27ac ChIP-RX read coverage of stitched enhancers was quantified using bamToGFF with parameter -t TRUE and divided by the millions of mapped reads, from which read-per-million values from the corresponding input experiment was subtracted. These values were used to create fold-changes during the treatment time-course.

Series [2] is described as follows: Toxicity study in Balb/c Crbn ILE391VAL humanized knockin mice. It counts as in vivo. On the procedure: For toxicity studies, four female CD1 mice (Charles River Laboratories) were injected intraperitoneally (IP) with single doses of 10 mg/Kg (R,S)-JQAD1 solubilized in 10% hydroxypropyl β-cyclodextrin (Sigma-Aldrich®) in sterile water. Following injection, blood concentration of (R,S)-JQAD1 was measured by serial measurements of animal serum at time points out to 24 h, by liquid chromatography with tandem mass spectrometry (LC-MS/MS) analysis. Pharmacokinetics were performed at ChemPartner in Shanghai, China, using LC-MS/MS method and pharmacokinetics parameters (Tmax, Cmax, T1/2, AUC, etc.) calculated with WinNonlin® V 6.2 statistics software (Pharsight Corporation) using a noncompartmental model. For maximally tolerated dose (MTD) testing, six female CD1 mice were treated with daily IP doses of (R,S)-JQAD1 at 10, 20, or 40 mg/kg. Animals were monitored for animal weight, grooming and behavior daily without noted effects. […] Animal weights, behavior and grooming were monitored daily, for a total of 21 days. At day 14, three mice per treatment group were sacrificed and tissues fixed for immunohistochemistry. Blood samples were obtained by retro-orbital puncture and blood analyzed at the Small Animal Imaging Facility at Beth Israel Deaconess Medical Center (Boston, MA), on a Hemavet® 9500FS (Drew Scientific) for blood counts, creatinine, AST, ALT, ALP, GGTP, and BUN measurements.

In series [3] the test system is 557 cancer cell lines. The experiment in a line: PRISM pooled barcoded 5-day cell viability screen. It counts as cell-based, human. On the procedure: PRISM barcoded pooled screening was performed using JQAD1 in 578 barcoded cell lines as described in Corsello et al. Nat. Med. 23:405-8 (2017) and Corsello et al. Nat Cancer 1:235-48 (2020). Some cell lines included in the screen were genetically engineered to express exogenous genes, and these cell lines were removed to yield 557 cell lines. Briefly, cells in pools of 20-25 were thawed and plated into 384-well plates (1250 cells/well for adherent cell pools, 2000 cells/well for suspension or mixed suspension/adherent cell pools) containing compound (top concentration: 10 μM, 8-point, threefold dilution). All conditions were tested in triplicate. Cells were lysed after 5 days of treatment and mRNA-based Luminex® detection of barcode abundance from lysates was carried out as described in Corsello et al. Cancer 1:235-48 (2020). Luminex median fluorescence intensity (MFI) data was input to a standardized R pipeline to generate viability estimates relative to vehicle treatment for each cell line and treatment condition, and to fit dose-response curves from viability data.

Where [4] appears, read: 40 mg/Kg IP daily, after 14 days, p NS versus vehicle.

On to `C[C@H](N(Cc1ccc(F)cc1)C(=O)CN1C(=O)O[C@@]2(CCc3cc(NC(=O)CCCCCCCCCCCNc4ccc5c(c4)C(=O)N(C4CCC(=O)NC4=O)C5=O)ccc32)C1=O)C(F)(F)F` (stereo partly drawn) [JQAD1, 12-((2-(2,6-dioxopiperidin-3-yl)-1,3-dioxoisoindolin-5-yl)amino)-N-((R)-3′-(2-((4-fluorobenzyl)((S)-1,1,1-trifluoropropan-2-yl)amino)-2-oxoethyl)-2′,4′-dioxo-2,3-dihydrospiro[indene-1,5′-oxazolidin]-5-yl)dodecanamide], for which, in series [1] (6 h), the “H3K27ac signal at 6 h versus 0 h” value is “no consistent change in acetylation”. Moreover, the “H3K27ac signal genome-wide at 24 h” value in series [1] (24 h) is on record as “general loss of H3K27ac signal genome-wide, which was most pronounced at densely acetylated super-enhancers”. In series [1] (24 h versus untreated), the “global suppression of all enhancers (H3K27ac marked sites)” value is listed as “approximately 2 fold”. Also, in series [2] (40 mg/Kg IP daily for 21 days, measurements after 14 days), the tolerability result was “well tolerated, with no effects on grooming, behavior, weight, peripheral blood counts, liver function tests or creatinine measurements”. Further, in series [2] (40 mg/Kg IP daily, 14 days, blinded pathologist), the “tissue pathology (hematoxylin and eosin)” value is reported as “no gross changes in tissue architecture or immune infiltrate; also recorded: no histologic or biochemical evidence of toxicity in the liver”. Moreover, in series [2] (setting [4]), the ALP was found to be 51, the ALT was found to be 54, the AST stood at 37 and the Albumin stood at 3.2. For the same compound, in series [2] (setting [4]), the Basophils is 0.02 K/μL, the Creatinine was found to be 0.17, the Eosinophils worked out at 0.10 and the GGTP amounted to 5. In series [2] (setting [4]), this compound returned a Hematocrit of 41.2%, a Hemoglobin of 13.35, a Lymphocytes of 1.80 and a Monocytes of 0.35 K/μL. In series [2] (setting [4]), this compound came in with a Neutrophils of 1.2, a Platelet of 528 K/μL and a WBC of 3.46 K/μL. The “toxicity (blood counts, liver and kidney function tests, weight, grooming)” value in series [2] (twice daily 40 mg/Kg IP for 14 days) was “no toxicity was observed”. The antineoplastic activity result in series [3] (5 days, 557 cancer cell lines) is given as “antineoplastic activity across multiple tumor lineages”. Further, in series [3] (5 days, top concentration 10 μM, some example cell lines within the majority of tumor lineages), the “area under the curve (AUC) of the dose-response in growth-inhibited cell lines” value is reported as below 0.85. Besides, the “relation of CRBN expression to AUC of the dose-response” value in series [3] (CRBN expression from CCLE) is recorded as “higher expression levels of CRBN were correlated with higher JQAD1-mediated antineoplastic activity”.
